The nature of series [1]: pH-responsiveness by HPLC: emetine released in aqueous phosphate buffer. The settings on record: 37° C. Type of series: physicochemical. On the procedure: Relative rates of hydrolysis of the compounds listed in Table 5 below over a 48 hour period were evaluated using the percent emetine released from the acid catalyzed hydrolysis of compounds 1 to 6.
The compounds were incubated in aqueous phosphate buffer at pH 5.5, 6.5 and 7.4 at 37° C. over a 48 hour period. High performance liquid chromatography (HPLC) was employed to analyze the samples and quantify how much emetine was released. The compounds whose hydrolysis to emetine is shown in table 5 are all 100% stable at physiological pH 7.4 up to a 5 day exposure.

Series [2] in a line: In vivo toxicity study in mice. The source says:
Each experiment or dosage involved three mice, and drug solutions were made in 1% DMSO/PBS. Each experiment was done three times.
The compounds were subjected to in vivo toxicity studies as follows. […] This observation was the same on the third and fourth day.

For series [3], the system named is DU145 cells. Kind of series: Cytotoxicity in 100% confluent DU145 cells (Example 9). Type of series: cell-based. To be noted: Homo sapiens, DU-145, 120 h; DU145, 100% confluent cells, medium pH 6.7, day 5. On the procedure:
(§1) The cytotoxicity of emetine and Compound 2 (as produced above in Example 1 and referred to in the figures as “ESA44”) was evaluated in DU145 and PC3 cells using 100% confluent cells. Cells were plated at 40,000 cells per well and allowed to grow for 4 days until the pH of the medium was 6.7. Compound 2 was added in RPMI, pH 7.0. The effect of the pH on the hydrolysis of Compound 2 to release emetine was evaluated. FIGS. 1 and 2 are graphs showing the viability of DU145 and PC3 cells as percent of vehicle on day 5 versus concentration of emetine and Compound 2.

For series [4], the system named is DU145 cells. Put plainly: cells. The class given is cell-based. The settings on record: Homo sapiens. On the procedure: (§2) Studies were carried out on three prostate cancer cell lines: LNCaP, PC3, and DU145. […] There was not a significant difference in cytotoxicity of emetine between days 3 and 7. […] This increase is most likely due to the release of emetine from the dithiocarbamate salt over the time period. Further drug release studies at pH 5 confirmed about 45% release of emetine from the dithiocarbamate salt after 3-day incubation at this acidic pH maintained at 37° C., whereas release of emetine from the dithiocarbamate salt was not observed at physiological pH (e.g., about 7.4).
(§3) Various compounds prepared according to Examples 1-5 were studied in LNCaP, PC3, and DU145 cells.
(§4) Various compounds prepared according to Example 6 were studied in DU145 and PC3 cells. The IC50 was determined at 3, 5, and 7 days.

Series [5] concerns PC3 cells. Kind of series: cells. Type of series: cell-based. The settings on record: Homo sapiens. On the procedure: as §2, §3, §4
The test system of series [6] is LNCaP cells. Put plainly: Cytotoxicity in LNCaP prostate cancer cell line. Type of series: cell-based. To be noted: Homo sapiens. On the procedure:
as §2, §3

Series [7] concerns PC3 cells. Put plainly: Cytotoxicity in 100% confluent PC3 cells (Example 9). The class given is cell-based. The settings on record: Homo sapiens, PC-3, 120 h; PC3, 100% confluent cells, medium pH 6.7, day 5. On the procedure: as §1
[8] abbreviates: DU-145, 168 h, read-out: IC50 after 7 days.
The mark [9] stands for this setting: PC-3, 168 h, read-out: IC50 after 7 days.
[10] abbreviates: 168 h, read-out: IC50 after 7 days.

Where two headings read alike, the source gives them in different places.

On to `CCC1CN2CCc3cc(OC)c(OC)cc3C2CC1CC1c2cc(OC)c(OC)cc2CCN1C(=O)/C=C(/C)C(=O)O` (stereo not drawn) [Compound 5], for which the “% Emetine at pH 5.5” value amounted to 0.0% in series [1] (pH 5.5, 0 hr); 61.5% in series [1] (pH 5.5, 24 hrs); 77.3% in series [1] (pH 5.5, 48 hrs). The “% Emetine at pH 6.5” value is reported as 0.0% in series [1] (pH 6.5, 0 hr) and 24.9% in series [1] (pH 6.5, 24 hrs). The “% Emetine at pH 7.4 to 8.0 over 72 hrs” value in series [1] (pH 7.4 to 8.0, 0 hrs) is recorded as 0.0%; in series [1] (pH 7.4 to 8.0, 24 hrs), 0.0%; in series [1] (pH 7.4 to 8.0, 48 hrs), 0.0%. Moreover, the toxicity observation result is recorded as “no noticeable toxicity effect” in series [2] (11 and 33 MPK, day 5); “no noticeable toxicity” in series [2] (100 MPK or below (33 and 11 MPK), through third and fourth day); “slight weight loss” in series [2] (100 MPK, day 5).

What is called IC50 is the concentration needed to halve the response being measured. `CC[C@H]1CN2CCc3cc(OC)c(OC)cc3[C@@H]2C[C@@H]1C[C@H]1NCCc2cc(OC)c(OC)cc21` [Emetine]: the IC50 came to 12900 ± 2390 nM in series [3]; 37.9 nM in series [4] (DU-145, 72 h, DU145, 3 day exposure, read-out: IC50); 23.7 ± 1.22 nM in series [4] (DU-145, 168 h, DU145, 7 days, read-out: IC50 after 7 days); 23.4 nM in series [4] (DU-145, 168 h, DU145, seven day exposure, read-out: IC50); 35.1 nM in series [5] (PC-3, 72 h, PC3, 3 day exposure, read-out: IC50); 26.8 ± 2.28 nM in series [5] (PC-3, 168 h, PC3, 7 days, read-out: IC50 after 7 days). The IC50 in series [5] (PC-3, 168 h, PC3, seven day exposure, read-out: IC50) came to 29.4 nM; in series [6] (72 h, 3 day exposure, read-out: IC50) it was 32.9 nM; in series [6] (168 h, 7 days, read-out: IC50 after 7 days), 27.8 ± 3.84 nM; in series [6] (168 h, seven day exposure, read-out: IC50), 31.6 nM; in series [7], 3850 ± 149 nM. In addition, the toxicity observation result in series [2] (33 and 11 MPK) is on record as “slight weight loss”; in series [2] (single dose 100 MPK, within 48 hours), “killed all three mice”.

Regarding `CCC1CN2CCc3cc(OC)c(OC)cc3C2CC1CC1c2cc(OC)c(OC)cc2CCN1C(=S)SCC(=O)Nc1ccc(Br)cc1` (stereo not drawn) [Compound 4g], the IC50 stood at 2800 ± 151 nM in series [4] (setting [8]), 2770 ± 146 nM in series [5] (setting [9]) and 1700 ± 187 nM in series [6] (setting [10]).

On to `CCC1CN2CCc3cc(OC)c(OC)cc3C2CC1CC1c2cc(OC)c(OC)cc2CCN1C(=S)NCc1ccc(Cl)cc1` (stereo not drawn) [Compound 11g], for which the IC50 in series [4] (setting [8]) came out at 2320 ± 91 nM; in series [5] (setting [9]), 2860 ± 66.2 nM; in series [6] (setting [10]), 1590 ± 151 nM.

Consider `CCC1CN2CCc3cc(OC)c(OC)cc3C2CC1CC1c2cc(OC)c(OC)cc2CCN1C(=S)SCc1ccccc1` (stereo not drawn) [Compound 4f], for which the IC50 in series [4] (setting [8]) turned out to be 1980 ± 213 nM; in series [5] (setting [9]), 1560 ± 290 nM; in series [6] (setting [10]), 1970 ± 88 nM.

As for `CCCCCCSC(=S)N1CCc2cc(OC)c(OC)cc2C1CC1CC2c3cc(OC)c(OC)cc3CCN2CC1CC` (stereo not drawn) [Compound 4h], the results for the IC50 in series [4] (setting [8]), in series [5] (setting [9]) and in series [6] (setting [10]) were 2300 ± 67 nM, 3030 ± 160 nM and 1610 ± 66 nM, respectively.

`CCC1CN2CCc3cc(OC)c(OC)cc3C2CC1CC1c2cc(OC)c(OC)cc2CCN1C(=S)SCCCCC(=O)OC` (stereo not drawn) [Compound 4l]: the IC50 in series [4] (setting [8]) worked out at 2250 ± 84 nM; in series [5] (setting [9]) it was 4860 ± 153 nM; in series [6] (setting [10]), 2310 ± 174 nM.
